Measurements from the NIST ThermoML archive (doi:10.1021/je050202g).
± gives the expanded uncertainty stated by the source.

Experiments:
[1] = wn = mass fraction of the nth substance listed; conditions: Wilhelmy Plate method
[2] = cn = amount concentration of the nth substance listed, in mol/dm3; conditions: 101.3 kPa, Liquid; for viscosity: Capillary tube (Ostwald / Ubbelohde) method
[3] = Wilhelmy Plate method

C1CNCCN1 [piperazine] + O
Conditions | mass density, [2] [kg/m3] | surface tension liquid-gas, [1] [mN/m] | viscosity, [2] [mPa·s]
293.15 K, c1 = 0.623 | 1000.46 ± 2.5 | – | 1.26 ± 0.04
293.15 K, c1 = 1.006 | 1002.49 ± 2.5 | – | 1.52 ± 0.05
293.15 K, c1 = 1.49 | 1005.4 ± 2.4 | – | 1.87 ± 0.06
293.15 K, w1 = 0.043 | – | 71.7 ± 2.1 | –
293.15 K, w1 = 0.086 | – | 70.1 ± 2 | –
293.15 K, w1 = 0.129 | – | 69.3 ± 1.9 | –
298.15 K, c1 = 0.623 | 999.37 ± 2.5 | – | 1.11 ± 0.04
298.15 K, c1 = 1.006 | 1001.3 ± 2.5 | – | 1.31 ± 0.04
298.15 K, c1 = 1.49 | 1004.11 ± 2.4 | – | 1.62 ± 0.05
298.15 K, c1 = 1.686 | 1005.39 ± 2.4 | – | 1.8 ± 0.06
303.15 K, c1 = 0.623 | 997.94 ± 2.5 | – | 0.98 ± 0.03
303.15 K, c1 = 1.006 | 999.79 ± 2.5 | – | 1.15 ± 0.04
303.15 K, c1 = 1.49 | 1002.47 ± 2.4 | – | 1.4 ± 0.04
303.15 K, c1 = 1.686 | 1003.66 ± 2.4 | – | 1.56 ± 0.05
313.15 K, c1 = 0.623 | 994.25 ± 2.5 | – | 0.79 ± 0.03
313.15 K, c1 = 1.006 | 996.03 ± 2.5 | – | 0.92 ± 0.03
313.15 K, c1 = 1.49 | 998.49 ± 2.4 | – | 1.09 ± 0.03
313.15 K, c1 = 1.686 | 999.49 ± 2.4 | – | 1.2 ± 0.04
313.15 K, w1 = 0.043 | – | 68.5 ± 2 | –
313.15 K, w1 = 0.086 | – | 67.8 ± 1.9 | –
313.15 K, w1 = 0.129 | – | 67.6 ± 1.9 | –
323.15 K, c1 = 0.623 | 989.76 ± 2.5 | – | 0.65 ± 0.02
323.15 K, c1 = 1.006 | 991.53 ± 2.5 | – | 0.75 ± 0.02
323.15 K, c1 = 1.49 | 993.86 ± 2.4 | – | 0.88 ± 0.03
323.15 K, c1 = 1.686 | 994.74 ± 2.4 | – | 0.96 ± 0.03

O [water]
[3]
Conditions | surface tension liquid-gas [mN/m]
293.15 K | 72.7 ± 2.2
313.15 K | 69.8 ± 2.1

O [water] + C1CNCCN1
[1], w2 = 0
Conditions | surface tension liquid-gas [mN/m]
293.15 K | 72.7 ± 2.2
313.15 K | 69.8 ± 2.1
